# Test system: mRNAs in liver, adipose and muscle tissues
# Test: real-time quantitative PCR / microarray of gene expression in tissues of DIO mice
# Type: in vivo, mouse
# Experimental: Animals were continuously fed high-fat diet pellets for 3 to 4 weeks, thereby establishing DIO mice. Mice were raised in a breeding room with a 12 h/12 h light/dark D) cycle. Animals were divided into three groups, i.e., a group with administration of physiological saline (n=3), a group with administration of a vehicle (n=5) and a group with administration of 50 mg/kg of a candidate compound (n=7). Samples were orally administered to animals every day. On Days 7, 28 and 56, each tissue was removed, frozen in liquid nitrogen, and stored at […] for short and long periods of time.
# On Days 7, 28 and 56, liver, adipose and muscle tissues were isolated from two groups of diet-induced DIO mice and total RNAs were extracted using Trizol. cDNAs were synthesized using 1 μg of total RNAs, and polymerase used for PCR was prepared using M-MLV polymerase according to a method instructed by the manufacturer. Real-time quantitative PCR was carried out using the prepared cDNAs.
# A cDNA microarray analysis was carried out using an affymetrix mouse genome 430A 2.0 array chip. Using trizol, about 13 μg of total RNA was extracted in a concentration of more than 1 μg/1 μl from liver, adipose and muscle tissues of DIO mice on Days 7, 28 and 56, followed by a microarray analysis. Functional classification was made using NetAffx which is available from the Affymetrix website.
# Adipose, liver or muscle tissues were pooled from male mice treated with a vehicle or a candidate compound for 4 weeks and the pooled tissues were subjected to microarray analysis. Total RNA was prepared from the tissues homogenized with a Trizol reagent (Invitrogen, Carlsbad, Calif.). Probes for the microarray analysis were prepared from 10 μg of the total RNA, and hybridized to Mouse 430A GeneChips (Affymetrix, Santa Clara, Calif.). The hybridized array was scanned, and raw data was extracted using Microarray Analysis Suite 5.0 (Affymetrix). For PCR quantitation, 1 μg of total RNA was reversely transcribed into cDNA using Superscript II and oligo(dT) primers. The constructed cDNA was amplified with the LightCycler FastStart DNA Master SYBR Green I kit and LightCycler, according to the manufacturer's instruction (Roche Diagnostics, Indianapolis, Ind.). Expression data were normalized to β-actin expression.
# In order to investigate anti-obesity effects of an NQO1 activator, the NQO1 activator was administered daily to DIO mice at a dose of 50 mg/kg via an oral route, and an attempt was made to confirm levels of mRNAs of acetyl CoA carboxylase (ACC) 1, ACC2, fatty acid synthase (FAS), lipoprotein lipase (LPL), and stearoyl-CoA desaturase 1 (SCD1), which participate in lipid metabolism in the hepatic and gonadal adipose tissues, by real-time quantitative PCR. These enzymes are very important for lipid metabolism; it is known that ACC catalyzes formation of malonyl CoA from acetyl CoA, FAS catalyzes formation of palmitate from malonyl CoA, and SCD1 catalyzes formation of monounsaturated fat, thus playing a critical role in formation of triacylglycerol, a major energy store. Therefore, these enzymes are closely correlated with obesity, diabetes, and lipid metabolism-related diseases. […] Therefore, from the results of such increased or decreased expression of genes for the above-mentioned enzymes, it can be inferred that NQO1 will be feasible as a therapeutic target for the treatment of metabolic diseases.
# In order to investigate effects of βL on the expression of genes involved in glucose and fat metabolism in liver, skeletal muscle and white adipose tissue (WAT), experiments were caned out using gene expression microarray analysis and mouse A42 Affymetrix GeneChip.
# [1] = DIO mice, 50 mg/kg daily oral, liver and gonadal adipose tissues
# [2] = gonadal adipose tissues, Days 7, 28 and 56, 50 mg/kg daily oral
smiles,measurement,setting,value
"CC1(C)CCC2=C(O1)c1ccccc1C(=O)C2=O [βL, 2,2-Dimethyl-3,4-dihydro-2H-benzo[h]chromene-5,6-dione]",LPL mRNA level increase compared to control,"DIO mice, 50 mg/kg daily oral",approximately 2 fold
same,increase in mRNA levels of PPAR gamma,"DIO mice, 50 mg/kg daily oral",two-fold
same,mRNA of PPAR alpha,"DIO mice, 50 mg/kg daily oral",not changed
same,"mRNAs of AOX, AMPK alpha 1, AMPK alpha 2 and carnitine palmitoyltransferase 1","DIO mice, 50 mg/kg daily oral",increased levels
same,"expression levels of mRNAs of ACC1 and ACC2, FAS, LPL, and SCD1","DIO mice, 50 mg/kg daily oral, hepatic and gonadal adipose tissues",remarkably decreased
same,HK2 mRNA level,[1],decreased
same,mRNA levels of UCP1 & 2,[1],significant increases
same,mRNAs of GLUT2 and GLUT4,[1],significant increases
same,"mRNAs of PGC1α, NRF1, mtTFA, COX4 and COX7",[1],increased levels of mRNAs for all enzymes
same,"expression of LPL, ATGL, PPARα, SIRT1, Glut2 and Glut4","adipose tissues, vs vehicle-treated mice",higher
same,"transcripts of SIRT1, SIRT3 and SIRT6",[2],significantly increased
same,"transcripts of SIRT2, SIRT5 and SIRT7",[2],did not exhibit any noticeable difference
same,expression of PGC-1α and NRF-1,"liver and muscle, βL-treated vs vehicle-treated mice",significantly induced
same,"expression of COX4, COX7, AOX, UCP2 and UCP3",muscle,strongly upregulated
same,expression of GLUT 2 and GLUT 4,muscle,induced
same,expression of Sirt1 and Sirt3,muscle and WAT,induced
